Data from patent publication US20250127905A1, “GLUTARIMIDE COMPOUND AND USE THEREOF” (MEDSHINE DISCOVERY INC., priority 2021, published 2025).

Key:
[1] = test system: imiquimod-induced psoriasis model; experiment: Imiquimod-induced psoriasis model in mice: pathological score, ear thickness, spleen weight; type: in vivo, BALB/c mice; conditions: Mean±SEM; for Spleen weight: D7; for Increased ear thickness: D7 relative to D0
Method: It is to evaluate the efficacy of compounds on imiquimod-induced psoriasis model in BALB/c mice.
Animals: BALB/c mice, male, 18 to 20 g; source: Zhejiang Vital River Laboratory Animal Technology Co., Ltd.
(§1) Experimental grouping and administration: After acclimatization, […] male BALB/c mice were randomly divided into 5 groups (n=6 or 9) according to body weight: normal (control, G1) group, vehicle (model, G2) group, test compound low-dose (30 mg/kg, BID, G3) group, test compound medium-dose (100 mg/kg, BID, G4) group, and test compound high-dose (300 mg/kg, BID, G5) group.
(§2) Model induction: the dorsal skin of the experimental animals was shaved (surface area=2×3 cm) before the application of imiquimod. In addition to the normal group, imiquimod cream was topically applied to the shaved back (47 mg) and left ear (15 mg) at 62 mg/mouse per day for 8 consecutive days (from D0 to D7). For administration groups (G2 to G5), the vehicle or test compound was intragastrically administered twice a day from D-1 to D6 and only once on D7. The administration volume was 10 mL/kg in each group. (Note: It is specified that the first application of imiquimod is D0; since it is administered one day earlier, the first administration is D-1).
Clinical score: Clinical disease scores for erythema, scale, and thickness were measured daily according to a grading system, and cumulative scores were calculated.
Ear thickness: The left ear thickness was measured on D0, D3, D5, and D7 for a total of 4 times, and the increased ear thickness on D7 relative to D0 was calculated.
Spleen weight: The spleen weight was measured after the animals were sacrificed on D7.
(§3) Experimental data were expressed as Mean±SEM; data were statistically analyzed using one-way ANOVA in GraphPad Prism software, and p<0.05 was considered a significant difference between the two groups.

[2] = test system: interleukin 17, interleukin 6, and tumor necrosis factor α; experiment: Imiquimod-induced psoriasis model in mice: relative levels of skin inflammatory factors (fluorescence quantitative PCR); type: in vivo, BALB/c mice; conditions: lesion skin D7, Mean±SEM
Method: as §1, §2
Inflammatory factors: The skin was taken from the lesion site after the animals were sacrificed on D7, and the relative levels of interleukin 17, interleukin 6, and tumor necrosis factor α were detected using fluorescence quantitative PCR.
as §3

## O=C1CCC(c2noc3c(NC(=O)CN4CCN(C[C@H]5CC[C@H](n6cc(NC(=O)c7cnn8ccc(N9C[C@H]%10C[C@@H]9CO%10)nc78)c(C(F)F)n6)CC5)CC4)cccc23)C(=O)N1 (stereo partly drawn) [WX015]
[1]; 30 mg/kg BID intragastric
  Spleen weight: 175.78 ± 13.01 mg
  Increased ear thickness: 208 ± 6 µm
  Pathological score: 20.2 ± 0.89
[1]; 100 mg/kg BID intragastric
  Spleen weight: 153.78 ± 11.67 mg
  Increased ear thickness: 217 ± 5.67 µm
  Pathological score: 20.5 ± 1.18
[1]; 300 mg/kg BID intragastric
  Spleen weight: 132.78 ± 3.94 mg
  Increased ear thickness: 185 ± 2.68 µm
  Pathological score: 19.0 ± 0.55
[2]; 30 mg/kg BID
  Interleukin 6 relative level: 8.0 ± 3.3
  Interleukin 17 relative level: 102.4 ± 36.9
  Tumor necrosis factor α relative level: 5.2 ± 0.7
[2]; 100 mg/kg BID
  Interleukin 6 relative level: 13.8 ± 2.3
  Interleukin 17 relative level: 113.1 ± 49.4
  Tumor necrosis factor α relative level: 5.2 ± 0.8
[2]; 300 mg/kg BID
  Interleukin 6 relative level: 4.7 ± 2.0
  Interleukin 17 relative level: 97.3 ± 35.3
  Tumor necrosis factor α relative level: 3.7 ± 0.6
